Values of other authors, collected in US20170239455A1 (priority 2014, published 2017).

System: virus Ebola

II [molecular iodine]
effectiveness against the virus: effective
